Measured values: patent publication US20240116985A1, “STAPLED PEPTIDES AND METHODS THEREOF” (priority 2020, published 2024)
In brackets after ≈: the same amount, converted by molar mass. Like-named read-outs stand apart in the source and are kept apart here.

What was measured:
CHI Log D procedure = format: physicochemical; details: pH 7.4, CHI Log D
[1] = target: T1, beta-catenin/TCF4 engagement (Homo sapiens, UniProt P35222); assay: Nano-BRET target engagement assay (B-cat-Halo & TCF4-Luc in HEK293 cells); format: cell-based; details: for inhibition at 10 µM: HEK293, @ 10 uM, read-out: NanoBRET % inh @ 10 uM
T1 construct: expressed in transfected cells; host or cells: HEK293
T1 sequence (P35222 1-781): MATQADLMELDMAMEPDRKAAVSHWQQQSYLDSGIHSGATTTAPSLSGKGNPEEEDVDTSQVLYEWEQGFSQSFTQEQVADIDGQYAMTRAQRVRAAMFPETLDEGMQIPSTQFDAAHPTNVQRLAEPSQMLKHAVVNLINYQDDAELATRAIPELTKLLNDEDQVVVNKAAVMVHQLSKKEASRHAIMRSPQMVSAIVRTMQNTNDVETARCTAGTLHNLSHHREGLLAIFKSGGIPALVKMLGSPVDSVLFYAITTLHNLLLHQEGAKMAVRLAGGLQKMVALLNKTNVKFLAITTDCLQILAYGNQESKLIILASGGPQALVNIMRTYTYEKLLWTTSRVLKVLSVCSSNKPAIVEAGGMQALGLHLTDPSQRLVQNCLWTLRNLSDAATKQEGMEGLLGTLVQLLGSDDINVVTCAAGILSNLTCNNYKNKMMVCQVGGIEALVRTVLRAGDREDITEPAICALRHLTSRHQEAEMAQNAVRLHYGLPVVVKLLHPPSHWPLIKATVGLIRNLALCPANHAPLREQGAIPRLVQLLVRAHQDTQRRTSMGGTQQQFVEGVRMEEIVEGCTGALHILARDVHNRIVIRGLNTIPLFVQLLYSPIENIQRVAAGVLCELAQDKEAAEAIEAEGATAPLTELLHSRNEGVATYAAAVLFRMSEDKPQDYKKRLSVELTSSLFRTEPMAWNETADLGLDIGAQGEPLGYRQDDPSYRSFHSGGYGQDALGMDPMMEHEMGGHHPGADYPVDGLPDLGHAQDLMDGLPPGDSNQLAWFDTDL

[2] = target: T2, full-length beta-Catenin (Uniprot ID P35222) (Homo sapiens, UniProt P35222); assay: Fluorescence polarization IC50 (beta-catenin / 5FAM-TCF4 10-53 competition); format: binding; details: read-out: beta-Catenin FP IC50
T2 construct: 10 nM full-length beta-Catenin (Uniprot ID P35222)
T2 sequence (P35222 1-781): T1 sequence (P35222 1-781)

Solubility in PBS = format: physicochemical
In short: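 Read-out is the HPLC peak area of the supernatant from ultracentrifuged PBS solution, scaled against a 50 μM peptide DMSO injection; value reported as [(PBS area)/(DMSO area)]*50 uM.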

| Compound | chromatographic logD (CHI Log D procedure) | inhibition at 10 µM [1] | IC50 ([1]; read-out: NanoBRET Abs IC50) | IC50 ([1]; read-out: NanoBRET IC50) | IC50 [2] | Solubility (Solubility in PBS; Solubility (uM)) | Solubility (Solubility in PBS) |
| --- | --- | --- | --- | --- | --- | --- | --- |
| CC(=O)N1CCC[C@]12CC=CCCCC1(CCCC=CCCCOC(=O)N3CC[C@@](C(=O)N[C@@H](Cc4ccccc4Cl)C(=O)N[C@@H](Cc4csc5ccccc45)C(=O)N[C@@H](Cc4c[nH]cn4)C(N)=O)(C3)NC(=O)[C@H](CC(N)=O)NC(=O)[C@H](Cc3ccccc3)NC(=O)[C@H](C)NC(=O)[C@H](C)NC(=O)[C@H](CC(=O)O)NC(=O)[C@H](CC(=O)O)NC1=O)NC(=O)[C@H](CC(C)(C)C)NC(=O)[C@H](CC(=O)O)NC2=O (stereo partly drawn) [I-784, Ac-PL3-Asp-Npg-B5-Asp-Asp-Ala-Ala-Phe-Asn-PyrS2-2C1F-BztA-His-NH2] | 2.29 | 35.1% | 14.5 µM | 12.1 µM | 6 nM | 21 µM (≈ 41.1 µg/mL) |  |
| CC(=O)N1CCC[C@]12CC=CCCCC1(CCCC=CCCCOC(=O)N3CC[C@@](C(=O)N[C@@H](Cc4ccsc4)C(=O)N[C@@H](Cc4csc5ccccc45)C(N)=O)(C3)NC(=O)[C@H](CC(N)=O)NC(=O)[C@H](Cc3ccccc3)NC(=O)[C@H](C)NC(=O)[C@H](C)NC(=O)[C@H](CC(=O)O)NC(=O)[C@H](CC(=O)O)NC1=O)NC(=O)[C@H](CC(C)(C)C)NC(=O)[C@H](CC(=O)O)NC2=O (stereo partly drawn) [I-785, Ac-PL3-Asp-Npg-B5-Asp-Asp-Ala-Ala-Phe-Asn-PyrS2-3Thi-BztA-NH2] | 2.28 | 31% | 21.6 µM |  | 6 nM | 42 µM (≈ 75.2 µg/mL) |  |
| CC(=O)N1CCC[C@]12CC=CCCCC1(CCCC=CCCCOC(=O)N3CC[C@@](C(=O)N[C@@H](Cc4ccsc4)C(=O)N[C@@H](Cc4csc5ccccc45)C(N)=O)(C3)NC(=O)[C@H](CC(N)=O)NC(=O)[C@H](Cc3ccccc3)NC(=O)[C@H](C)NC(=O)[C@H](C)NC(=O)[C@H](CCC(=O)O)NC(=O)[C@H](CC(=O)O)NC1=O)NC(=O)[C@H](CC(C)(C)C)NC(=O)[C@H](CC(=O)O)NC2=O (stereo partly drawn) [I-786, Ac-PL3-Asp-Npg-B5-Asp-Glu-Ala-Ala-Phe-Asn-PyrS2-3Thi-BztA-NH2] | 2.3 |  | 29.3 µM | 17.1 µM | 8 nM | 39 µM (≈ 70.4 µg/mL) |  |
| CC(=O)N1CCC[C@]12CC=CCCCC1(CCCC=CCCCOC(=O)N3CC[C@@](C(=O)N[C@@H](Cc4ccsc4)C(=O)N[C@@H](Cc4csc5ccccc45)C(=O)N[C@@H](Cc4c[nH]cn4)C(N)=O)(C3)NC(=O)[C@H](CC(N)=O)NC(=O)[C@H](Cc3ccccc3)NC(=O)[C@H](C)NC(=O)[C@H](C)NC(=O)[C@H](CC(=O)O)NC(=O)[C@H](CC(=O)O)NC1=O)NC(=O)[C@H](CCC(C)C)NC(=O)[C@H](CC(=O)O)NC2=O (stereo partly drawn) [I-788, Ac-PL3-Asp-hLeu-B5-Asp-Asp-Ala-Ala-Phe-Asn-PyrS2-3Thi-BztA-His-NH2] | 2.17 |  | 21.6 µM |  | 5 nM | 31 µM (≈ 59.7 µg/mL) |  |
| CC(=O)N1CCC[C@]12CC=CCCCC1(CCCC=CCCCOC(=O)N3CC[C@@](C(=O)N[C@@H](Cc4ccsc4)C(=O)N[C@@H](Cc4cccc5ccccc45)C(=O)N[C@@H](Cc4c[nH]cn4)C(N)=O)(C3)NC(=O)[C@H](CC(N)=O)NC(=O)[C@H](Cc3ccccc3)NC(=O)[C@H](C)NC(=O)[C@H](C)NC(=O)[C@H](CC(=O)O)NC(=O)[C@H](CC(=O)O)NC1=O)NC(=O)[C@H](CC(C)(C)C)NC(=O)[C@H](CC(=O)O)NC2=O (stereo partly drawn) [I-789, Ac-PL3-Asp-Npg-B5-Asp-Asp-Ala-Ala-Phe-Asn-PyrS2-3Thi-1NapA-His-NH2] | 2.08 | 9.7% | > 20 µM |  | 19 nM |  | 50 µM (≈ 96.1 µg/mL) |
| CC(=O)N1CCC[C@]12CC=CCCCC1(CCCC=CCCCOC(=O)N3CC[C@@](C(=O)N[C@@H](Cc4ccsc4)C(=O)N[C@@H](Cc4ccc5ccccc5c4)C(=O)N[C@@H](Cc4c[nH]cn4)C(N)=O)(C3)NC(=O)[C@H](CC(N)=O)NC(=O)[C@H](Cc3ccccc3)NC(=O)[C@H](C)NC(=O)[C@H](C)NC(=O)[C@H](CC(=O)O)NC(=O)[C@H](CC(=O)O)NC1=O)NC(=O)[C@H](CC(C)(C)C)NC(=O)[C@H](CC(=O)O)NC2=O (stereo partly drawn) [I-790, Ac-PL3-Asp-Npg-B5-Asp-Asp-Ala-Ala-Phe-Asn-PyrS2-3Thi-2NapA-His-NH2] | 2.12 |  | > 20 µM |  | 24 nM |  | 50 µM (≈ 96.1 µg/mL) |
| CC(=O)N1CCC[C@]12CC=CCCCC1(CCCC=CCCCOC(=O)N3CC[C@@](C(=O)N[C@@H](Cc4ccsc4)C(=O)N[C@@H](Cc4c[nH]c5ccccc45)C(=O)N[C@@H](Cc4c[nH]cn4)C(N)=O)(C3)NC(=O)[C@H](CC(N)=O)NC(=O)[C@H](Cc3ccccc3)NC(=O)[C@H](C)NC(=O)[C@H](C)NC(=O)[C@H](CC(=O)O)NC(=O)[C@H](CC(=O)O)NC1=O)NC(=O)[C@H](CC(C)(C)C)NC(=O)[C@H](CC(=O)O)NC2=O (stereo partly drawn) [I-792, Ac-PL3-Asp-Npg-B5-Asp-Asp-Ala-Ala-Phe-Asn-PyrS2-3Thi-Trp-His-NH2] | 1.96 |  | > 20 µM |  | 20 nM | 33 µM (≈ 63 µg/mL) |  |
| CC(=O)N1CCC[C@]12CC=CCCCC1(CCCC=CCCCOC(=O)N3CC[C@@](C(=O)N[C@@H](Cc4csc5ccccc45)C(=O)N[C@@H](Cc4csc5ccccc45)C(=O)N[C@@H](Cc4c[nH]cn4)C(N)=O)(C3)NC(=O)[C@H](CC(N)=O)NC(=O)[C@H](Cc3ccccc3)NC(=O)[C@H](C)NC(=O)[C@H](C)NC(=O)[C@H](CC(=O)O)NC(=O)[C@H](CC(=O)O)NC1=O)NC(=O)[C@H](CC(C)(C)C)NC(=O)[C@H](CC(=O)O)NC2=O (stereo partly drawn) [I-793, Ac-PL3-Asp-Npg-B5-Asp-Asp-Ala-Ala-Phe-Asn-PyrS2-BztA-BztA-His-NH2] | 2.39 |  | > 20 µM |  | 14 nM |  | 10 µM (≈ 19.8 µg/mL) |
| CC(=O)N1CCC[C@]12CC=CCCCC1(CCCC=CCCCOC(=O)N3CC[C@@](C(=O)N[C@@H](Cc4cccc5ccccc45)C(=O)N[C@@H](Cc4csc5ccccc45)C(=O)N[C@@H](Cc4c[nH]cn4)C(N)=O)(C3)NC(=O)[C@H](CC(N)=O)NC(=O)[C@H](Cc3ccccc3)NC(=O)[C@H](C)NC(=O)[C@H](C)NC(=O)[C@H](CC(=O)O)NC(=O)[C@H](CC(=O)O)NC1=O)NC(=O)[C@H](CC(C)(C)C)NC(=O)[C@H](CC(=O)O)NC2=O (stereo partly drawn) [I-794, Ac-PL3-Asp-Npg-B5-Asp-Asp-Ala-Ala-Phe-Asn-PyrS2-1NapA-BztA-His-NH2] | 2.38 |  | 26.4 µM |  | 19 nM | 40 µM (≈ 78.8 µg/mL) |  |
| CC(=O)N1CCC[C@]12CC=CCCCC1(CCCC=CCCCOC(=O)N3CC[C@@](C(=O)N[C@@H](Cc4ccsc4)C(=O)N[C@@H](Cc4csc5ccccc45)C(=O)N[C@@H](Cc4c[nH]cn4)C(N)=O)(C3)NC(=O)[C@H](CC(C)C)NC(=O)[C@H](Cc3ccccc3)NC(=O)[C@H](C)NC(=O)[C@H](C)NC(=O)[C@H](CC(=O)O)NC(=O)[C@H](CC(=O)O)NC1=O)NC(=O)[C@H](CC(C)(C)C)NC(=O)[C@H](CC(=O)O)NC2=O (stereo partly drawn) [I-802, Ac-PL3-Asp-Npg-B5-Asp-Asp-Ala-Ala-Phe-Leu-PyrS2-3Thi-BztA-His-NH2] | 2.3 |  | 4.8 µM |  | 6 nM |  | 10 µM (≈ 19.3 µg/mL) |
| CC(=O)N1CCC[C@]12CC=CCCCC1(CCCC=CCCCOC(=O)N3CC[C@@](C(=O)N[C@@H](Cc4ccsc4)C(=O)N[C@@H](Cc4csc5ccccc45)C(=O)N[C@@H](Cc4c[nH]cn4)C(N)=O)(C3)NC(=O)[C@H](CCO)NC(=O)[C@H](Cc3ccccc3)NC(=O)[C@H](C)NC(=O)[C@H](C)NC(=O)[C@H](CC(=O)O)NC(=O)[C@H](CC(=O)O)NC1=O)NC(=O)[C@H](CC(C)(C)C)NC(=O)[C@H](CC(=O)O)NC2=O (stereo partly drawn) [I-804, Ac-PL3-Asp-Npg-B5-Asp-Asp-Ala-Ala-Phe-Hse-PyrS2-3Thi-BztA-His-NH2] | 2.11 |  | 13.5 µM |  | 5 nM | 44 µM (≈ 84.2 µg/mL) |  |
